Source: patent publication US20170165253A1, “TREATMENT OF SEXUAL DYSFUNCTION AND FOR IMPROVED SEXUAL QUALITY OF LIFE” (ReJoy, priority 2015, published 2017)
Several values for one entry are separate records, joined by “and”; a condition that tells them apart may be missing. Identical values can stand only once. Counter-ions that a name gives are not always drawn.

Assays:
nipple-areola complex = assay: Phenylephrine FSFI orgasm domain study (Example 8); format: in vivo, human
Protocol: Phenylephrine HCl 15%. A study was conducted to evaluate the effect of Phenylephrine HCl 15% on the FSFI orgasm domain. Three premenopausal subjects participated in the study. Subjects were not hypertensive, pregnant or breastfeeding.

arrector pili muscle = details: 1% w/v, iontophoresis; cited from earlier work
nipple areole complex = assay: Pilot dose study of nipple erection and sensitivity, topical phenylephrine (Example 3); format: in vivo, human; details: 10% topical solution
Protocol: A pilot study was conducted to assess the dosage of topical phenylephrine solution required to elicit nipple erection and sensitivity. […] Two subjects were post-menopausal and the reminder three were pre-menopausal. Subjects were not hypertensive, pregnant or breastfeeding. Three formulations were used: Formula A: 0% topical phenylephrine hydrochloride solution; Formula B: 5% topical phenylephrine hydrochloride solution; Formula C: 10% topical phenylephrine hydrochloride solution.
The study was conducted over 3 days. On day 1, subjects were instructed to apply on the left nipple Formula A and on the right nipple Formula B. On day 2, subjects were instructed to apply on the left nipple Formula A and on the right nipple Formula C. On day 3, subjects were instructed to apply on the left nipple Formula B and on the right nipple Formula C. 0.1 mL of each formula was applied with a cotton swab to the nipple areole complex. […] With the 10% topical phenylephrine solution, response in nipple erection and sensitivity was obtained in less than 30 minutes and lasted for 3-4 hours.

nipple areola complex = assay: Blinded study of 10%, 15%, 20% phenylephrine on the NAC: erection, sensitivity, lubrication, arousal (Example 12); format: in vivo, human; details: for Arousal / Lubrication: 60 minutes, change from baseline; for Responders, Arousal / Responders, Lubrication: 20 patients; for Erection: 1 = erection reported
Protocol: 20 healthy, pre-menopausal females were recruited to the study. Subjects were instructed to apply either 4 or 6 drops of an investigational drug to each nipple areola complex. Baseline blood-pressure, heart rate, nipple erection, nipple sensitivity, genital lubrication and arousal were measured and recorded. 30 minutes later, blood pressure and heart rate were measured and recorded. 60 minutes later, blood-pressure, heart rate, nipple erection, nipple sensitivity, genital lubrication and arousal were measured and recorded.
During the study, four parameters of efficacy were measured: nipple erection, nipple sensitivity, genital lubrication, and arousal. Efficacy parameters were all patient reported outcomes measured at 0 and 60 minutes after the application of the investigational drug. Nipple erection was determined by asking the patient if they had experienced nipple erection during the 60 minutes after the application of the investigational drug. Nipple sensitivity was measured with a Likert scale of 1-10 (1 being “insensitive”, 10 being “extremely sensitive/bordering on pain”) at 0 and 60 minutes after the application of the investigational drug. Genital lubrication was measured with a Likert scale of 1-10 (1 being “none”, 10 being “excellent”) at 0 and 60 minutes after the application of the investigational drug. Arousal was measured with a Likert scale of 1-10 (1 being “none”, 10 being “extremely aroused”) at 0 and 60 minutes after the application of the investigational drug.
After a 48-hour washout period, subjects repeated the procedure using 4 or 6 drops of a new arm of the study. The subjects and the investigator were blinded to the drug assignment in each arm. In total 6 arms were tested:
Nipple erection data was scored “1” for a positive response to the question “Did you experience nipple erection after applying the solution?” It was scored “0” otherwise. Sensitivity data was tabulated by subtracting the patient reported nipple sensitivity at 60 minutes from the reported value at baseline. Subjects were asked to rate their level of nipple sensitivity on a scale of 1-10 (1 being “non-sensitive” and 10 being “extremely sensitive, bordering on pain.”) Subjects reporting a sensitivity increase greater than 2 after the application of each investigational drug were considered sensitivity responders.
Genital lubrication was measured with a Likert scale of 1-10 (1 being “none” and 10 being “excellent”) at 0 and 60 minutes after the application of the investigational drug. Arousal was measured with a Likert scale of 1-10 (1 being “none” and 10 being “extremely aroused”) at 0 and 60 minutes after the application of the investigational drug. […] A subject was considered a responder for genital lubrication if they reported a change in genital lubrication of 2 or more.
A subject was considered a responder for arousal if they reported a change in arousal of 2 or more.

[1] = tested on: skin on the subjects forearm; assay: pH pilot study, pilomotor effect on forearm skin (Example 6); format: in vivo, human; details: 10% solution
Protocol: A pilot study was conducted to assess the optimal pH of topical phenylephrine solution required to elicit smooth muscle contraction on the skin. A series of 10% phenylephrine solutions were prepared in phosphate buffer solutions of varied pH. pH 4.6, 4.8, 5.0, 5.2, 5.4, 5.6, 5.8, 6.0, 6.2, 6.4, and 6.6 were used. Areas of skin on the subjects forearm were marked with a surgical pen. 50 microliter of each solution were applied to the marked area of skin and allowed to dry. After one hour the sites of application were visually inspected for the appearance of the pilomotor effect (i.e., “goose bumps”).

[2] = Phenylephrine HCl 15%, single subjects, Hydrochloride
[3] = 10% (Arm C), change of 2 or more
[4] = 15% (Arm D), single patients, Hydrochloride
[5] = 20% (Arm B), single patients, Hydrochloride

For `CNC[C@H](O)c1cccc(O)c1` [Phenylephrine HCl, Phenylephrine Hydrochloride], the adverse events (nipple-areola complex; 15%) was “No adverse events were reported”, the “subjects with increased sensitivity and nipple erection” value (nipple-areola complex; 15%, subjects without response to 10%) was 3 of 5 and the “FSFI Scale How Difficult to Reach Orgasm, Intervention” value (nipple-areola complex; [2]) was 5 (2×) and 4. For the same molecule, the “FSFI Scale How Often Orgasm was Reached, Intervention” value (nipple-areola complex; [2]) was 5 and 4 (2×), the “nipple sensitivity past application” value (nipple-areola complex; report) was at most 12 h and the “piloerection on the forearm” value (arrector pili muscle) was “can activate the piloerection on the forearm”. For the same molecule, the “duration of response in nipple erection and sensitivity” value (nipple areole complex) was 3 to 4 h, the “time to response in nipple erection and sensitivity” value (nipple areole complex) was “less than 30 minutes” and the “Percent responders, Arousal” value (nipple areola complex; 10% (Arm C)) was 0%. The “Percent responders, Lubrication” value (nipple areola complex; 10% (Arm C)) was 5%, the Arousal (nipple areola complex; 10% (Arm C), Likert 1-10, single patients) was 0 and the Lubrication (nipple areola complex; 10% (Arm C), Likert 1-10, single patients, Hydrochloride) was 0 (17×) and 1 (2×) and 2. For the same molecule, the “Responders, Arousal” value (nipple areola complex; [3]) was 0, the “Responders, Lubrication” value (nipple areola complex; [3]) was 1 and the “% Responders, Erection” value (nipple areola complex; 10%, four drops) was 37%. The “% Responders, Sensitivity” value (nipple areola complex; 10%, four drops) was 16%, the Erection (nipple areola complex; 10%, four drops (0.114 mL) per NAC, 0 otherwise, single patients, listed as PE, Hydrochloride) was 0 (11×) and 1 (8×) and the “Responders, Erection” value (nipple areola complex; 10%, four drops, 19 patients) was 7. The “Responders, Sensitivity” value (nipple areola complex; 10%, four drops, 19 patients) was 3, the Sensitivity (nipple areola complex; 10%, four drops, change baseline to 60 minutes, scale 1-10, single patients, listed as PE, Hydrochloride) was 1 (7×) and 0 (9×) and 5 and 2 (2×) and the “% Responders, Erection” value (nipple areola complex; 10%, six drops) was 50%. The “% Responders, Sensitivity” value (nipple areola complex; 10%, six drops) was 44%, the Erection (nipple areola complex; 10%, six drops (0.170 mL) per NAC, single patients, listed as PE, Hydrochloride) was 1 (8×) and 0 (8×) and the “Responders, Erection” value (nipple areola complex; 10%, six drops, 16 patients) was 8. For the same molecule, the “Responders, Sensitivity” value (nipple areola complex; 10%, six drops, 16 patients) was 7, the Sensitivity (nipple areola complex; 10%, six drops, change baseline to 60 minutes, scale 1-10, single patients, listed as PE, Hydrochloride) was 4 (2×) and 0 (6×) and 1 (3×) and 3 (2×) and 2 (3×) and the “Percent responders, Arousal” value (nipple areola complex; 15% (Arm D)) was 0%. For the same molecule, the “Percent responders, Lubrication” value (nipple areola complex; 15% (Arm D)) was 10%, the “Responders, Arousal” value (nipple areola complex; 15% (Arm D)) was 0 and the “Responders, Lubrication” value (nipple areola complex; 15% (Arm D)) was 2. The Arousal (nipple areola complex; [4]) was 0 (19×) and −1, the Lubrication (nipple areola complex; [4]) was 0 (15×) and 2 and 1 (3×) and 3 and the “% Responders, Erection” value (nipple areola complex; 15%, four drops) was 42%. For the same molecule, the “% Responders, Sensibility” value (nipple areola complex; 15%, four drops) was 53%, the “Responders, Erection” value (nipple areola complex; 15%, four drops, 19 patients) was 8 and the “Responders, Sensibility” value (nipple areola complex; 15%, four drops, 19 patients) was 10. For the same molecule, the Erection (nipple areola complex; 15%, four drops, single patients, listed as PE, Hydrochloride) was 0 (11×) and 1 (8×), the Sensibility (nipple areola complex; 15%, four drops, change baseline to 60 minutes, scale 1-10, single patients, listed as PE, Hydrochloride) was 0 (7×) and 2 (5×) and 5 and 1 (2×) and 3 (3×) and 9 and the “Percent responders, Arousal” value (nipple areola complex; 20% (Arm B)) was 0%. The “Percent responders, Lubrication” value (nipple areola complex; 20% (Arm B)) was 20%, the “Responders, Arousal” value (nipple areola complex; 20% (Arm B)) was 0 and the “Responders, Lubrication” value (nipple areola complex; 20% (Arm B)) was 4. For the same molecule, the Arousal (nipple areola complex; [5]) was 0 (19×) and 1, the Lubrication (nipple areola complex; [5]) was 0 (15×) and 2 (3×) and 1 and 3 and the “% Responders, Erection” value (nipple areola complex; 20%, four drops) was 68%. For the same molecule, the “% Responders, Sensitivity” value (nipple areola complex; 20%, four drops) was 42%, the “Responders, Erection” value (nipple areola complex; 20%, four drops, 19 patients) was 13 and the “Responders, Sensitivity” value (nipple areola complex; 20%, four drops, 19 patients) was 8. The Erection (nipple areola complex; 20%, four drops, single patients, listed as PE, Hydrochloride) was 1 (13×) and 0 (6×), the Sensitivity (nipple areola complex; 20%, four drops, change baseline to 60 minutes, scale 1-10, single patients, listed as PE, Hydrochloride) was 0 (7×) and 1 (4×) and 2 (5×) and 4 (2×) and 9 and the “Results after 1 hour (pilomotor effect)” value ([1]; pH 4.6, 50 microliter on forearm) was “None”. The “Results after 1 hour (pilomotor effect)” value ([1]; pH 4.8) was “Slight”, the “Results after 1 hour (pilomotor effect)” value ([1]; pH 5.0) was “Strong” and the “Results after 1 hour (pilomotor effect)” value ([1]; pH 5.2) was “Strong”. For the same molecule, the “Results after 1 hour (pilomotor effect)” value ([1]; pH 5.4) was “Strong”, the “Results after 1 hour (pilomotor effect)” value ([1]; pH 5.6) was “Slight” and the “Results after 1 hour (pilomotor effect)” value ([1]; pH 5.8) was “Slight”. The “Results after 1 hour (pilomotor effect)” value ([1]; pH 6.0) was “None”, the “Results after 1 hour (pilomotor effect)” value ([1]; pH 6.2) was “None” and the “Results after 1 hour (pilomotor effect)” value ([1]; pH 6.4) was “None”. For the same molecule, the “Results after 1 hour (pilomotor effect)” value ([1]; pH 6.6) was “None”.
